Measurements as given in publication PMC7913925, “Design and Evaluation of a Polypeptide That Mimics the Integrin Binding Site for EDA Fibronectin to Block Profibrotic Cell Activity” (International Journal of Molecular Sciences, 2021).
Bridges are numbered along the chain shown (N, C = ends). Where no end group is shown, it is not given here.

How the values were obtained:
[1] = system: Mrtfa mRNA in NIH/3T3 fibroblasts; test: qRT-PCR Mrtfa mRNA; type: cell-based, mouse; settings: 48 h, TGF-β1 10 ng/mL
Description: Reverse transcription (RT) and real-time quantitative PCR (qRT-PCR) were used to assess ACTA2/Acta2, Col1a1, Col3a1, Fn1, Eda-Fn1, Mmp9, Tgfb1, Ltbp1, Hic5, and Mrtfa mRNA expressions. Custom PCR primers were designed in-house (Table 2) and then synthesized by BGI (Beijing, China). Cells were grown in 6-well culture plates and washed with phosphate buffered saline (PBS) before lysis with TRIzon Reagent (CWBio, Beijing, China) and total RNA purification according to the manufacturer’s protocol. Reverse transcription was carried using the TransScript First-Strand cDNA Synthesis SuperMix kit according to the manufacturer’s protocol (TransGen, Beijing, China), using the random primer method for the initiation of cDNA synthesis. Nuclease-free H2O replaced the RNA sample to serve as a negative control for the reverse transcription reaction. For qRT-PCR, 10 µL 2× TransStart Top Green qPCR SuperMix was added to each well of a 96-well PCR plate containing 0.4 µL forward primer, 0.4 µL reverse primer, […], and nuclease-free water to a total volume of 20 µL. The qRT-PCR reaction was completed using a CFX96 Real-Time PCR Detection System (Bio-Rad Laboratories, Hercules, CA, USA). Amplification used the following parameters: 94 °C for 30 s, followed by 40 cycles of 94 °C for 5 s, 55 °C for 15 s, 72 °C for 10 s, and then a dissociation stage (melt-curve). […]

OPN–ITGA4 interaction = test: Co-IP of OPN with ITGA4; type: cell-based; settings: 48 h, Co-IP with anti-ITGA4
Description: Total protein was extracted from cells in RIPA lysis buffer containing 1% protease inhibitor cocktail, 1% phenylmethylsulfonyl fluoride, and 1% sodium orthovanadate (Santa Cruz Biotechnology, Santa Cruz, CA, USA). Protein was quantified by Micro BCA Protein Assay Kit (Thermo Fisher Scientific) before 7.5% SDS-PAGE and transfer to nitrocellulose. Membranes were blocked with 5% bovine serum albumin (BSA; Sigma-Aldrich)/0.5% Tween-20 (Sigma-Aldrich)/PBS for 1 h, RT, followed by incubation with primary antibodies diluted in 1% BSA/0.1% Tween-20/PBS, overnight at 4 °C. Primary antibodies were: anti-phosphoY204/Y187 ERK1/2 (1:1000); anti-ERK1/2 (1:1000); anti-phosphoY861 FAK (1:1000); anti-FAK (1:2000). Immunoblotting for anti-GAPDH (1:2500) was used as a protein loading control. Following wash steps, membranes were incubated in goat anti-rabbit IgG H&L secondary antibody (horseradish peroxidase, HRP conjugate, […]) (Abcam; 1:5000 dilution, 1% BSA/0.1% Tween-20/PBS). Detection was performed using Immobilon reagent (Merck Millipore, Burlington, MA, USA) and imaged using a Tanon 5500 Chemiluminescent Imaging System (Tanon, Shanghai, China).
A volume of 25 µg total protein from cell lysate in nondenaturing lysis buffer containing protease inhibitors was immunoprecipitated (IP) using anti-ITGA4 antibodies linked to protein A/G sepharose beads (Abcam). […]

pro-MMP2 = test: Gelatinase zymography pro-MMP2; type: cell-based, mouse; settings: 48 h, TGF-β1 10 ng/mL, AF38Pep 10 µg/mL, conditioned medium
Description: Conditioned media were collected from cells incubated with serum-free medium (SFM) alone, SFM containing 10 ng/mL TGF-β1, SFM containing 10 µg/mL AF38Pep, or SFM containing both 10 ng/mL TGF-β1 and 10 µg/mL AF38Pep. Conditioned medium was concentrated 10× by filtrating spin columns (Amicon Ultra-4 10 kDa MWCO, Merck Millipore) and protein was quantified by Micro BCA Protein Assay Kit (Thermo Fisher Scientific). A 1.5 mm thick 10% nonreducing acrylamide gel containing gelatin was prepared and 10 µg of sample in 5 × nonreducing buffer was loaded into the gel lanes. The gel was run at 100 V until the protein entered the stacking gel layer, then the voltage was increased to 150 V until the marker achieved resolved band separation. The gels were then washed twice for 30 min using wash buffer to remove SDS and renature the enzymes. Gels were further rinsed for 5–10 min in incubation buffer at 37 °C with agitation to activate the gelatinase reaction. Fresh incubation buffer was added, and the gels were incubated overnight at 37 °C. Gels were stained with staining solution containing Coomassie blue for between 30 min to 1 h, before rinsing with ddH2O and subsequent incubation with de-stain solution until bands could be observed. The gels were transferred to 2% acetic acid and rehydrated overnight for imaging by scanner.

EDA-FN = test: Western blot total protein EDA-FN; type: cell-based; settings: 48 h, TGF-β1+AF38Pep
[2] = target: FN-EDA (peptide sharing sequence with the C-C′ loop of EDA-FN) (Homo sapiens, UniProt P02751); test: Isothermal calorimetry, AF38Pep with FN-EDA; type: binding; settings: 25 °C, pH 7
Description: Custom designed peptides were resuspended in sterile-filtered HEPES buffered saline (140 mM NaCl, 1.5 mM Na2HPO4, 50 mM HEPES; pH 7). The larger EDA-FN binding peptide was diluted to 15 µM, degassed and added to the calorimetry chamber well. Three smaller test peptides (fibronectin EDA-peptide, FN-EDA; fibronectin RGD-peptide, FN-RGD and collagen I RGD-peptide, COL-RGD) were diluted to 300 µM, degassed and each was separately loaded into the calorimetry injection needle. The chamber well temperature was kept consistent at 25 °C. Blank buffer was used to replace either the well peptide or the injection needle peptide to account for background heat generation. Isothermal titration calorimetry was performed using a MicroCal iTC200 (Malvern Panalytical, Malvern, UK) and dissociation constant (KD) and association constant (KA) were calculated using the one set of sites model fitting (with number of binding sites assumed to be 1) in MicroCal Origin Software v8.5 (Malvern Panalytical).

OPN–ITGA4 binding (OPN–ITGA4 interaction): did not influence OPN–ITGA4 binding
pro-MMP2 gelatinase activity (pro-MMP2): suppressed activity levels
Sequence: VMPYISTTPAKPCTSENCGNSWYGGFKSKNENKIYFIN (disulfide 13-18 (inferred)) [AF38Pep]
MRTFA mRNA expression [1]: attenuated
TGF-β1-driven EDA-FN total protein increase (EDA-FN): marginally, but significantly, attenuated
ITC interaction (thermogram) [2]: there was a detectable interaction between AF38Pep and FN-EDA
